Tests used:
FLK-1 = target: T1, FLK-1 (Mus musculus, UniProt P35918); assay: GST-FLK-1 bioassay (tyrosine kinase activity on poly(glu-tyr)); format: biochemical; conditions: GST-Flk1, poly(glu-tyr) substrate, 0.5 μM ATP
T1 construct: GST-Flklcd purified from sf9 recombinant baculovirus transfomnation (SUGEN, Inc.); host or cells: Sf9 insect cells, recombinant baculovirus
Protocol: This assay analyzes the tyrosine kinase activity of GST-Flk1 on poly(glu-tyr) peptides.
1. Corning 96-well ELISA plates (Corning Catalog No. 25805-96).
2. poly(glu-tyr) 4:1, lyophilizate (Sigma Catalog No. P0275), 1 mg/ml in sterile PBS.
3. PBS Buffer: for 1 L, mix 0.2 g KH2PO4, 1.15 g Na2HPO4, 0.2 g KCl and 8 g NaCl in approx. 900 ml dH2O. When all reagents have dissolved, adjust the pH to 7.2 with HCl. Bring total volume to 1 L with dH2O.
4. PBST Buffer: to 1 L of PBS Buffer, add 1.0 ml Tween-20.
5. TBB—Blocking Buffer: for 1 L, mix 1.21 g TRIS, 8.77 g NaCl, 1 ml TWEEN-20 in approximately 900 ml dH2O. Adjust pH to 7.2 with HCl. Add 10 g BSA, stir to dissolve. Bring total volume to 1 L with dH2O. Filter to remove particulate matter.
6. 1% BSA in PBS: add 10 g BSA to approx. 990 ml PBS buffer, stir to dissolve. Adjust total volume to 1 L with PBS buffer, filter to remove particulate matter.
8. GST-Flklcd purified from sf9 recombinant baculovirus transfomnation (SUGEN, Inc.).
12. Kinase Dilution Buffer (KDB): mix 10 ml Hepes (pH 7.5), 1 ml 5M NaCl, 40 μL 100 mM sodium orthovanadate and 0.4 ml of 5% BSA in dH2O with 88.56 ml dH2O.
13. NUNC 96-well V bottom polypropylene plates, Applied Scientific Catalog #AS-72092
14. EDTA: mix 14.12 g ethylenediaminetetraacetic acid (EDTA) with approx. 70 ml dH2O. Add 10 N NaOH until EDTA dissolves. Adjust pH to 8.0. Adjust total volume to 100 ml with dH2O.
15. 1° and 2° Antibody Dilution Buffer: mix 10 ml of 5% BSA in PBS buffer with 89.5 ml TBST.
16. Anti-phosphotyrosine rabbit polyclonal antisera (SUGEN, Inc.)
17. Goat anti-rabbit HRP conjugate.
18. ABST solution: To approx. 900 ml dH2O add 19.21 g citric acid and 35.49 g Na2HPO4. Adjust pH to 4.0 with phosphoric acid. Add 2,2′-Azinobis(3-ethyl-benzthiazoline-6-sulfonic acid (ABTS, Sigma, Cat. No. A-1888, hold for approx. ½ hour, filter.
19. 30% Hydrogen Peroxide.
20. ABST/H2O2: add 3 μl of H2O2 to 15 ml of ABST solution.
1. Coat Corning 96-well ELISA plates with 2 μg of polyEY in 100 μl PBS/well, hold at room temperature for 2 hours or at […] overnight. Cover plates to prevent evaporation.
2. Remove unbound liquid from wells by inverting plate. Wash once with TBST. Pat the plate on a paper towel to remove excess liquid.
3. Add 100 μl of 1% BSA in PBS to each well. Incubate, with shaking, for 1 hr. at room temperature.
5. Soak wells with 50 mM HEPES (pH7.5, 150 μl/well).
6. Dilute test compound with dH2O/4% DMSO to 4 times the desired final assay concentration in 96-well polypropylene plates.
7. Add 25 μl diluted test compound to each well of ELISA plate. In control wells, place 25 μl of dH2O/4% DMSO.
8. Dilute GST-Flk1 0.005 μg (5 ng)/well in KDB.
9. Add 50 μl of diluted enzyme to each well.
10. Add 25 μl 0.5 M EDTA to negative control wells.
11. Add 25 μl of 40 mM MnCl2 with 4×ATP (2 μM) to all wells (100 μl final volume, 0.5 μM ATP final concentration in each well).
12. Incubate, with shaking, for 15 minutes at room temperature.
13. Stop reaction by adding 25 μl of 500 mM EDTA to each well.
14. Wash 3× with TBST and pat plate on paper towel to remove excess liquid.
15. Add 100 μl per well anti-phosphotyrosine antisera, 1:10,000 dilution in antibody dilution buffer. Incubate, with shaking, for 90 min. at room temperature.
17. Add 100 μl/well of goat anti-rabbit HRP conjugate (1:6,000 in antibody dilution buffer). Incubate, with shaking, for 90 minutes are room temperature.
19. Add 100 μl room temperature ABST/H2O2 solution to each well.
20. Incubate, with shaking for 15 to 30 minutes at room temperature.
21. If necessary, stop reaction by adding 100 μl of 0.2 M HCl to each well.
22. Read results on Dynatech MR7000 ELISA reader with test filter at 410 nM and reference filter at 630 nM.

P38 = P38 (Homo sapiens, UniProt Q16539); assay: P38 kinase inhibition; format: biochemical
P38, sequence (Q16539 whole entry): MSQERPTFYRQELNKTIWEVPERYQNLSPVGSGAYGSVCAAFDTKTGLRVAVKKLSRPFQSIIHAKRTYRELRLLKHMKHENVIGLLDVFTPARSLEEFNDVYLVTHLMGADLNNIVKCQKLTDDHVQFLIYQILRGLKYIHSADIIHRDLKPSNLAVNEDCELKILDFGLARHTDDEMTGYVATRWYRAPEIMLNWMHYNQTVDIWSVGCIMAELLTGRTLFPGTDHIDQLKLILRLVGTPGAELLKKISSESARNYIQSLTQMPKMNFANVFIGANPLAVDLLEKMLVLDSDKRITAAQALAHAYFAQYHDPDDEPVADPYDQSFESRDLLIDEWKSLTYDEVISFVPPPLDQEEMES

T1 sequence (P35918 784-1345 limits assumed): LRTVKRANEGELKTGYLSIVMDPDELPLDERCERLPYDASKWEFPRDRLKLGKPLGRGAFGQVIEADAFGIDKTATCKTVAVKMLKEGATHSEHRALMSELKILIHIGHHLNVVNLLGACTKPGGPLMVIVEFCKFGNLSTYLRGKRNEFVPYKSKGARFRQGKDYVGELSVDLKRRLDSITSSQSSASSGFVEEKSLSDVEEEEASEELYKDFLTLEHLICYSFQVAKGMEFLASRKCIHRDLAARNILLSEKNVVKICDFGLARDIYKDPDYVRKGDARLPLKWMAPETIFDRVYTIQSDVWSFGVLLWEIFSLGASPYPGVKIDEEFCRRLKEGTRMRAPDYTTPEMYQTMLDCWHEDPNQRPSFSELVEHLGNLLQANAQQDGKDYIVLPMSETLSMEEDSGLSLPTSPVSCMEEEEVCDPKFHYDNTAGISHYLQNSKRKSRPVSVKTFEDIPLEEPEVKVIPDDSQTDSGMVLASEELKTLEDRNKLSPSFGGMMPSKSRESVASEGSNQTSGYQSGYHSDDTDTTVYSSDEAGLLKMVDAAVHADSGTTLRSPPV

CCN(CC)CCNC(=O)c1c(C)[nH]c(/C=C2\C(=O)Nc3cccc(-c4ccccc4)c32)c1C [Example 3, 2,4-Dimethyl-5-(2-oxo-4-phenyl-1,2-dihydro-indol-3-ylidenemethyl)-1H-pyrrole-3-carboxylic Acid (2-Diethylamino-ethyl)-amide]
IC50 (FLK-1): 9 nM | IC50 (P38): > 10 µM

Cc1[nH]c(/C=C2\C(=O)Nc3cccc(-c4ccc(F)cc4)c32)c(C)c1C(=O)N1CCN(C)CC1 [Example 4, 3-[3,5-Dimethyl-4-(4-methyl-piperazine-1-carbonyl)-1H-pyrrol-2-ylmethylene]-4-(4-fluoro-phenyl)-1,3-dihydro-indol-2-one]
IC50 (FLK-1): 74 nM | IC50 (P38): > 10 µM

Cc1[nH]c(/C=C2\C(=O)Nc3cccc(-c4ccc(F)cc4)c32)c(C)c1C(=O)NCCN1CCCC1 [Example 6, 5-[4-(4-Fluoro-phenyl)-2-oxo-1,2-dihydro-indol-3-ylidenemethyl]-2,4-dimethyl-1H-pyrrole-3-carboxylic Acid (2-Pyrrolidin-1-yl-ethyl)-amide]
IC50 (FLK-1): 21 nM | IC50 (P38): > 10 µM

Cc1cc(C(=O)N2CC[C@H](N(C)C)C2)c(/C=C2\C(=O)Nc3cccc(-c4ccc(F)cc4)c32)[nH]1 [Example 10, 3-[3-((S)-3-Dimethylamino-pyrrolidine-1-carbonyl)-5-methyl-1H-pyrrol-2-ylmethylene]-4-(4-fluoro-phenyl)-1,3-dihydro-indol-2-one]
IC50 (FLK-1): 180 nM | IC50 (P38): > 10 µM

CCN(CC)CCNC(=O)c1c(C)[nH]c(/C=C2\C(=O)Nc3cccc(-c4cccc(F)c4)c32)c1C [Example 13, 5-[4-(3-Fluoro-phenyl)-2-oxo-1,2-dihydro-indol-3-ylidenemethyl]-2,4-dimethyl-1H-pyrrole-3-carboxylic Acid (2-Diethylamino-ethyl)-amide]
IC50 (FLK-1): 13 nM | IC50 (P38): > 10 µM

Cc1[nH]c(/C=C2\C(=O)Nc3cccc(-c4cccc(F)c4)c32)c(C)c1C(=O)NCCn1ccnn1 [Example 15, 5-[4-(3-Fluoro-phenyl)-2-oxo-1,2-dihydro-indol-3-ylidenemethyl]-2,4-dimethyl-1H-pyrrole-3-carboxylic Acid (2-[1,2,3]Triazol-1-yl-ethyl)-amide]
IC50 (FLK-1): 32 nM | IC50 (P38): 4.9 µM

CCOC(=O)c1c(C)[nH]c(/C=C2\C(=O)Nc3cccc(-c4cccc(F)c4)c32)c1CCCN1CCN(C)CC1 [Example 18, 5-[4-(3-Fluoro-phenyl)-2-oxo-1,2-dihydro-indol-3-ylidenemethyl]-2-methyl-4-[3-(4-methyl-piperazin-1-yl)-propyl]-1H-pyrrole-3-carboxylic Acid Ethyl Ester]
IC50 (FLK-1): 420 nM | IC50 (P38): 9.5 µM

Cc1[nH]c(/C=C2\C(=O)Nc3cccc(-c4ccc(Cl)cc4)c32)c(C)c1C(=O)N1CCN(C)CC1 [Example 20, 4-(4-Chloro-phenyl)-3-[3,5-dimethyl-4-(4-methyl-piperazine-1-carbonyl)-1H-pyrrol-2-ylmethylene]-1,3-dihydro-indol-2-one]
IC50 (FLK-1): 230 nM | IC50 (P38): > 10 µM

Cc1[nH]c(/C=C2\C(=O)Nc3cccc(-c4ccc(Cl)cc4)c32)c(C)c1C(=O)NCCN1CCCC1 [Example 22, 5-[4-(4-Chloro-phenyl)-2-oxo-1,2-dihydro-indol-3-ylidenemethyl]-2,4-dimethyl-1H-pyrrole-3-carboxylic Acid (2-Pyrrolidin-1-yl-ethyl)-amide]
IC50 (FLK-1): 16 nM | IC50 (P38): 13.1 µM

Cc1cc(C(=O)N2CC[C@@H](N(C)C)C2)c(/C=C2\C(=O)Nc3cccc(-c4ccc(Cl)cc4)c32)[nH]1 [Example 25, 4-(4-Chloro-phenyl)-3-[3-((R)-3-dimethylamino-pyrrolidine-1-carbonyl)-5-methyl-1H-pyrrol-2-ylmethylene]-1,3-dihydro-indol-2-one]
IC50 (FLK-1): 180 nM | IC50 (P38): > 10 µM

Cc1cc(C(=O)N2C[C@@H](C)N[C@@H](C)C2)c(/C=C2\C(=O)Nc3cccc(-c4ccc(Cl)cc4)c32)[nH]1 [Example 27]
IC50 (FLK-1): 170 nM | IC50 (P38): > 10 µM

CCN(CC)CCNC(=O)c1c(C)[nH]c(/C=C2\C(=O)Nc3cccc(-c4cccc(Cl)c4)c32)c1C [Example 29, 5-[4-(3-Chloro-phenyl)-2-oxo-1,2-dihydro-indol-3-ylidenemethyl]-2,4-dimethyl-1H-pyrrole-3-carboxylic Acid (2-Diethylamino-ethyl)-amide]
IC50 (FLK-1): 41 nM | IC50 (P38): > 10 µM

Cc1cc(C(=O)N2CC[C@H](N(C)C)C2)c(/C=C2\C(=O)Nc3cccc(-c4cccc(Cl)c4)c32)[nH]1 [Example 32, 4-(3-Chloro-phenyl)-3-[3-((S)-3-dimethylamino-pyrrolidine-1-carbonyl)-5-methyl-1H-pyrrol-2-ylmethylene]-1,3-dihydro-indol-2-one]
IC50 (FLK-1): 51 nM | IC50 (P38): > 10 µM

CCN(CC)CCNC(=O)c1c(C)[nH]c(/C=C2\C(=O)Nc3cccc(-c4cccc(Br)c4)c32)c1C [Example 63, 5-[4-(3-Bromo-phenyl)-2-oxo-1,2-dihydro-indol-3-ylidenemethyl]-2,4-dimethyl-1H-pyrrole-3-carboxylic Acid (2-Diethylamino-ethyl)-amide]
IC50 (FLK-1): 43 nM

Cc1[nH]c(/C=C2\C(=O)Nc3cccc(-c4ccccc4F)c32)c(C)c1C(=O)N1CCN(C)CC1 [Example 93, 3-[3,5-Dimethyl-4-(4-methyl-piperazine-1-carbonyl)-1H-pyrrol-2-ylmethylene]-4-(2-fluoro-phenyl)-1,3-dihydro-indol-2-one]
IC50 (FLK-1): < 9.1 nM

Cc1cc(C(=O)NCCn2ccnn2)c(/C=C2\C(=O)Nc3cccc(-c4ccccc4F)c32)[nH]1 [Example 99, 2-[4-(2-Fluoro-phenyl)-2-oxo-1,2-dihydro-indol-3-ylidenemethyl]-5-methyl-1H-pyrrole-3-carboxylic Acid (2-[1,2,3]Triazol-1-yl-ethyl)-amide]
IC50 (FLK-1): 170 nM

Cc1[nH]c(/C=C2\C(=O)Nc3cccc(-c4cccc(C(F)(F)F)c4)c32)c(C)c1C(=O)N1CCN(C)CC1 [Example 104, 3-[3,5-Dimethyl-4-(4-methyl-piperazine-1-carbonyl)-H-pyrrol-2-ylmethylene]-4-(3-trifluoromethyl-phenyl)-1,3-dihydro-indol-2-one]
IC50 (FLK-1): 66 nM

Cc1cc(C(=O)NCCN2CCCC2)c(/C=C2\C(=O)Nc3cccc(-c4ccc(F)c(Cl)c4)c32)[nH]1 [Example 119, 2-[4-(3-Chloro-4-fluoro-phenyl)-2-oxo-1,2-dihydro-indol-3-ylidenemethyl]-5-methyl-1H-pyrrole-3-carboxylic Acid (2-Pyrrolidin-1-yl-ethyl)-amide]
IC50 (FLK-1): 180 nM

CCN(CC)CCNC(=O)c1c(C)[nH]c(/C=C2\C(=O)Nc3cccc(-c4ccc(OC(F)(F)F)cc4)c32)c1C [Example 140, 2,4-Dimethyl-5-[2-oxo-4-(4-trifluoromethoxy-phenyl)-1,2-dihydro-indol-3-ylidenemethyl]-1H-pyrrole-3-carboxylic Acid (2-Diethylamino-ethyl)-amide]
IC50 (FLK-1): 75 nM

Reference: US6677368B2, “4-aryl substituted indolinones” (Sugen, Inc., priority 2000, dated 2004)
